Assay results from patent US6806291B1, “Analgesic compounds, their synthesis and pharmaceutical compositions containing them” (The Foundation for the LSU Health Sciences Center, priority 2003, dated 2004).

Columns and labels:
[1] = test system: CAR (constitutive androstane receptor)
Experimental: (§1) The hepatotoxic effects of SCP-M1 were evaluated in human hepatocytes (HEPG-2) and in human primary cultures of normal liver cells. […] Phase contrast, microscopy, Trypan blue exclusion, Hoechst staining, and FAS-ligand and CAR (constitutive androstane receptor) induction were used as criteria. […] HEPG-2 cells were grown and maintained in EMEM medium containing NEAA (nonessential amino acids), supplemented with 10% fetal bovine serum (FBS), and incubated at 37° C. with a constant supply of 5% CO2. Primary human liver cells were grown in HCM medium (Walkersville, Md.), and maintained in HMM medium (Walkersville, Md.) at 37° C. with 5% CO2. 80% confluent cultures of HEPG2 and primary hepatocytes growing in 6- and 24-well plates, respectively were held 6-8 hr in serum-free medium (EMEM, 0.5% FBS for HEPG2 and HMM [Clonetics, Walkersville, Md.] for primary hepatocytes) before the addition of analgesics.
(§2) The up-regulation of FAS-ligand (FAS-L) and activation of CAR (constitutive androstane receptor) were analyzed by Western blot. Briefly, the cell extracts were made, and adjusted for protein concentrations by the Bio-rad method. About 15-20 μg protein were loaded onto an 8-16% gel (Bio-rad), and electrophoresis was conducted for 2 hr at 120 V. The proteins were transferred onto nitrocellulose membrane at 30 V for 60 min at 4° C.

[2] = test system: FAS-ligand
Experimental: as §1, §2

[3] = test system: human hepatocytes (HEPG-2)
Experimental: as §1

[4] = test system: Complete Freund's Adjuvant (CFA)-induced thermal hyperalgesia; test: CFA-induced thermal hyperalgesia (paw withdrawal latency, Hargreaves); type: in vivo, male CD-1 mice; conditions: 2.5 mmol/kg by oral gavage at 48 hours post-CFA; latency measured 30 minutes to 6 hour after drug; ANOVA drug effect p=0.014
Experimental: To determine whether the SCP-M series has analgesic activity, its effect on Complete Freund's Adjuvant (CFA)—induced thermal hyperalgesia was accessed. Under halothane anesthesia, male CD-1 mice were injected with 0.1 ml of CFA (Calbiochem, USA) to the glabrous surface of one hind paw. When injected into the footpad, CFA produces localized inflammation and hyperalgesia that appears within two hours and is present for 7 to 10 days (Iadorola, et al., 1988). At 48-hours post-CFA (time of peak hyperalgesia), each mouse received by oral gavage 2.5 mmol/kg of SCP-M1 or vehicle. The latency to withdraw the paw from a thermal stimulus (Hargreaves, et al., 1988) was measured using an analgesiometer (IITC Life Sciences, Inc., Woodland Hills, Calif.) according to the technique of Hargreaves, et al. The stimulus intensity was set to produce baseline latencies of about 10-15 seconds, and a 20 second maximum latency was used. Thermal hyperalgesia was measured before drug administration (pre-drug baseline), and again at 30 minutes, 1 hour, 2 hour, 3 hour, 4 hour, 5 hour, and 6 hour after drug administration.
No other statistically significant effects were found (time effect: F(6,90)=0.486, p=0.817; drugxtime interaction: F(6,90)=0.634, p=0.793). The effects of SCP-M1 on CFA-induced thermal hyperalgesia are shown as a percentage of pre-drug baseline in FIG. 1.

[5] = test system: human hepatocytes in primary cultures; test: Hepatotoxic effect in primary human hepatocytes, Trypan blue exclusion and Hoechst staining; type: cell-based
Experimental: […]. […] […].
Hoechst staining was employed for detection of apoptosis. […] 45 min.

CAR activation [1] | Compound | pro-apoptotic FAS-ligand up-regulation [2] | apoptotic cell death by Hoechst staining [3] | analgesic effect on CFA-induced thermal hyperalgesia vs vehicle treated controls [4] | apoptosis by Trypan blue exclusion and Hoechst staining ([5]; human) | apoptosis by Trypan blue exclusion and Hoechst staining ([5]; human hepatocytes in primary cultures, treated 6-8 hr at 37° C.)
reduced effects | O=C(CNS(=O)(=O)c1ccccc1C(=O)O)Nc1ccc(O)cc1 [SCP-M1, 2-{[(4-hydroxyphenyl)carbamoyl]methylsulfamoyl}benzoic acid] | reduced effects | practically ineffective in inducing cell death | significant analgesic effect | enhanced apoptosis was caused by acetaminophen but not SCP-M1 | –
– | CC(=O)Nc1ccc(O)cc1 [acetaminophen, reference compound] | – | – | – | – | enhanced apoptosis
